Measurements reported in the supplement of paper PMC11451515.

System: NOMO1
Assay: cell viability relative to DMSO control; higher = less cytotoxic
Details: 48 h
Procedure, shortened: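 Library compounds in DMSO were pin-dosed into 1536-well plates (5 μl) holding NOMO1 or SEM (500 cells/well) or P12-Ichikawa (1000 cells/well) leukemia cells, across an 11-point threefold series of 47 μM to 0.79 nM. Each cell line had been adapted for at least four passages in each medium. CellTiter-Glo One luminescence was read after 48 h at 37°C. Viability is the per-plate percentage relative to DMSO wells, with cell-free wells as background.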

[1] = RPMI 5 mM glucose + 10% FBS, 0.000781 µM
[2] = RPMI 5 mM glucose + 10% FBS, 0.00234 µM
[3] = RPMI 5 mM glucose + 10% FBS, 0.00702 µM
[4] = RPMI 5 mM glucose + 10% FBS, 0.0211 µM
[5] = RPMI 5 mM glucose + 10% FBS, 0.0632 µM
[6] = RPMI 5 mM glucose + 10% FBS, 0.19 µM
[7] = RPMI 5 mM glucose + 10% FBS, 0.569 µM
[8] = RPMI 5 mM glucose + 10% FBS, 1.71 µM
[9] = RPMI 5 mM glucose + 10% FBS, 5.12 µM
[10] = RPMI 5 mM glucose + 10% FBS, 15.4 µM
[11] = RPMI 5 mM glucose + 10% FBS, 46.1 µM
[12] = HPLM + 10% dialyzed FBS, 0.000781 µM
[13] = HPLM + 10% dialyzed FBS, 0.00234 µM
[14] = HPLM + 10% dialyzed FBS, 0.00702 µM
[15] = HPLM + 10% dialyzed FBS, 0.0211 µM
[16] = HPLM + 10% dialyzed FBS, 0.0632 µM
[17] = HPLM + 10% dialyzed FBS, 0.19 µM
[18] = HPLM + 10% dialyzed FBS, 0.569 µM
[19] = HPLM + 10% dialyzed FBS, 1.71 µM
[20] = HPLM + 10% dialyzed FBS, 5.12 µM
[21] = HPLM + 10% dialyzed FBS, 15.4 µM
[22] = HPLM + 10% dialyzed FBS, 46.1 µM
[23] = RPMI 5 mM glucose + 10% dialyzed FBS, 0.000781 µM
[24] = RPMI 5 mM glucose + 10% dialyzed FBS, 0.00234 µM
[25] = RPMI 5 mM glucose + 10% dialyzed FBS, 0.00702 µM
[26] = RPMI 5 mM glucose + 10% dialyzed FBS, 0.0211 µM
[27] = RPMI 5 mM glucose + 10% dialyzed FBS, 0.0632 µM
[28] = RPMI 5 mM glucose + 10% dialyzed FBS, 0.19 µM
[29] = RPMI 5 mM glucose + 10% dialyzed FBS, 0.569 µM
[30] = RPMI 5 mM glucose + 10% dialyzed FBS, 1.71 µM
[31] = RPMI 5 mM glucose + 10% dialyzed FBS, 5.12 µM
[32] = RPMI 5 mM glucose + 10% dialyzed FBS, 15.4 µM
[33] = RPMI 5 mM glucose + 10% dialyzed FBS, 46.1 µM

**Q.** What does the source list for CN(CCOc1ccc(CC2SC(=O)NC2=O)cc1)c1ccccn1 (stereo not drawn)?
**A.** cell viability [1]: 110%; cell viability [2]: 113%; cell viability [3]: 121%; cell viability [4]: 108%; cell viability [5]: 115%; cell viability [6]: 117%; cell viability [7]: 113%; cell viability [8]: 112%; cell viability [9]: 127%; cell viability [10]: 113%; cell viability [11]: 109%

**Q.** What does the source list for NC1=NC(=O)N2CC12 (stereo not drawn)?
**A.** cell viability [12]: 82%; cell viability [13]: 94.5%; cell viability [14]: 104%; cell viability [15]: 102%; cell viability [16]: 107%; cell viability [17]: 99.3%; cell viability [18]: 104%; cell viability [19]: 73.9%; cell viability [20]: 43.5%; cell viability [21]: 4.8%; cell viability [22]: 4.55%; cell viability [1]: 87.7%; cell viability [2]: 94.5%; cell viability [3]: 94.2%; cell viability [4]: 87.8%; cell viability [5]: 92.2%; cell viability [6]: 90.1%; cell viability [7]: 85.3%; cell viability [8]: 82.7%; cell viability [9]: 56.2%; cell viability [10]: 4.92%; cell viability [11]: 4.24%; cell viability [23]: 88.3%; cell viability [24]: 76.1%; cell viability [25]: 87.8%; cell viability [26]: 93.4%; cell viability [27]: 104%; cell viability [28]: 101%; cell viability [29]: 106%; cell viability [30]: 64.7%; cell viability [31]: 55.9%; cell viability [32]: 3.18%; cell viability [33]: 4.25%

**Q.** With O=C(/C=C/c1ccc(/C=C/C(=O)Nc2ccc(C3=NCCN3)cc2)cc1)Nc1ccc(C2=NCCN2)cc1 as the compound, how does the cell viability [12] read?
**A.** 103%

**Q.** What about the cell viability [13] of the same compound?
**A.** 108%

**Q.** And the cell viability [14]?
**A.** 111%

**Q.** And the cell viability [15]?
**A.** 108%

**Q.** What about the cell viability [16] of the same compound?
**A.** 111%

**Q.** What about the cell viability [17] of the same compound?
**A.** 116%

**Q.** And the cell viability [18]?
**A.** 117%

**Q.** And the cell viability [19]?
**A.** 123%

**Q.** What about the cell viability [20] of the same compound?
**A.** 121%

**Q.** And the cell viability [21]?
**A.** 111%

**Q.** What about the cell viability [22] of the same compound?
**A.** 122%

**Q.** What about the cell viability [1] of the same compound?
**A.** 104%

**Q.** What about the cell viability [2] of the same compound?
**A.** 98.8%

**Q.** And the cell viability [3]?
**A.** 115%

**Q.** What about the cell viability [4] of the same compound?
**A.** 117%

**Q.** What about the cell viability [5] of the same compound?
**A.** 123%

**Q.** And the cell viability [6]?
**A.** 106%

**Q.** What about the cell viability [7] of the same compound?
**A.** 106%

**Q.** What about the cell viability [8] of the same compound?
**A.** 115%

**Q.** What about the cell viability [9] of the same compound?
**A.** 117%

**Q.** What about the cell viability [10] of the same compound?
**A.** 125%

**Q.** What about the cell viability [11] of the same compound?
**A.** 131%

**Q.** What about the cell viability [23] of the same compound?
**A.** 88.2%

**Q.** And the cell viability [24]?
**A.** 107%

**Q.** What about the cell viability [25] of the same compound?
**A.** 95.5%

**Q.** What about the cell viability [26] of the same compound?
**A.** 106%

**Q.** What about the cell viability [27] of the same compound?
**A.** 117%

**Q.** What about the cell viability [28] of the same compound?
**A.** 117%

**Q.** What about the cell viability [29] of the same compound?
**A.** 113%

**Q.** And the cell viability [30]?
**A.** 112%

**Q.** What about the cell viability [31] of the same compound?
**A.** 108%

**Q.** And the cell viability [32]?
**A.** 112%

**Q.** What about the cell viability [33] of the same compound?
**A.** 102%

**Q.** Which cell viability [12] does the source give for CNC(=O)c1ccc2c(c1)NC(=O)/C2=C(\Nc1cccc(CN(C)C)c1)c1ccccc1 here?
**A.** 85.5%

**Q.** And the cell viability [13]?
**A.** 109%

**Q.** What about the cell viability [14] of the same compound?
**A.** 103%

**Q.** And the cell viability [15]?
**A.** 100%

**Q.** And the cell viability [16]?
**A.** 99.9%

**Q.** What about the cell viability [17] of the same compound?
**A.** 106%

**Q.** And the cell viability [18]?
**A.** 95%

**Q.** What about the cell viability [19] of the same compound?
**A.** 91.9%

**Q.** What about the cell viability [20] of the same compound?
**A.** 45.9%

**Q.** And the cell viability [21]?
**A.** 63.4%

**Q.** And the cell viability [22]?
**A.** 0.559%

**Q.** What about the cell viability [1] of the same compound?
**A.** 93.7%

**Q.** And the cell viability [2]?
**A.** 84.5%

**Q.** And the cell viability [3]?
**A.** 93.6%

**Q.** What about the cell viability [4] of the same compound?
**A.** 94.9%

**Q.** What about the cell viability [5] of the same compound?
**A.** 93.1%

**Q.** What about the cell viability [6] of the same compound?
**A.** 93.3%

**Q.** What about the cell viability [7] of the same compound?
**A.** 95.1%

**Q.** And the cell viability [8]?
**A.** 87.2%

**Q.** And the cell viability [9]?
**A.** 80%

**Q.** And the cell viability [10]?
**A.** 66.5%

**Q.** What about the cell viability [11] of the same compound?
**A.** 1.26%

**Q.** And the cell viability [23]?
**A.** 74.6%

**Q.** And the cell viability [24]?
**A.** 91.7%

**Q.** What about the cell viability [25] of the same compound?
**A.** 90.5%

**Q.** And the cell viability [26]?
**A.** 90.7%

**Q.** What about the cell viability [27] of the same compound?
**A.** 80%

**Q.** And the cell viability [28]?
**A.** 98.9%

**Q.** What about the cell viability [29] of the same compound?
**A.** 90.3%

**Q.** What about the cell viability [30] of the same compound?
**A.** 89.1%

**Q.** And the cell viability [31]?
**A.** 75.9%

**Q.** What about the cell viability [32] of the same compound?
**A.** 57.7%

**Q.** What about the cell viability [33] of the same compound?
**A.** 1.81%

**Q.** What does the source list for CN(C)c1nc(Cc2ccc(NC(=O)c3ccc(C(F)(F)F)cc3)cc2)nc(N(C)C)c1CC(=O)O?
**A.** cell viability [12]: 120%; cell viability [13]: 101%; cell viability [14]: 107%; cell viability [15]: 94.5%; cell viability [16]: 119%; cell viability [17]: 112%; cell viability [18]: 103%; cell viability [19]: 96.2%; cell viability [20]: 107%; cell viability [21]: 108%; cell viability [22]: 91.1%; cell viability [1]: 93%; cell viability [2]: 88.6%; cell viability [3]: 87.1%; cell viability [4]: 82.7%; cell viability [5]: 99.4%; cell viability [6]: 89.4%; cell viability [7]: 95.7%; cell viability [8]: 96.6%; cell viability [9]: 86%; cell viability [10]: 91.8%; cell viability [11]: 85.5%; cell viability [23]: 96.1%; cell viability [24]: 95.2%; cell viability [25]: 96.2%; cell viability [26]: 94.1%; cell viability [27]: 91.6%; cell viability [28]: 97.8%; cell viability [29]: 98%; cell viability [30]: 99.8%; cell viability [31]: 96.9%; cell viability [32]: 86.9%; cell viability [33]: 86.8%
